Test results: patent US6241963A, “Dopamine and serotonin transporter ligands and imaging agents” (priority 1996, dated 2001)
“And” between values parts separate entries of the source, which are not always exact repeats. Equal entries are not always repeated. Where two headings read alike, the source gives them in different places.

What was measured:
[1] = target: T1, rat striatal homogenates (dopamine transporter) (Rattus norvegicus, UniProt P23977); experiment: In vitro binding with rat striatal homogenates using [^125 I]IPT as the ligand; conditions: for Ki: [^125 I]IPT as ligand
T1 construct: from tissue; host or cells: rat striatum homogenate
T1 sequence (P23977 whole entry): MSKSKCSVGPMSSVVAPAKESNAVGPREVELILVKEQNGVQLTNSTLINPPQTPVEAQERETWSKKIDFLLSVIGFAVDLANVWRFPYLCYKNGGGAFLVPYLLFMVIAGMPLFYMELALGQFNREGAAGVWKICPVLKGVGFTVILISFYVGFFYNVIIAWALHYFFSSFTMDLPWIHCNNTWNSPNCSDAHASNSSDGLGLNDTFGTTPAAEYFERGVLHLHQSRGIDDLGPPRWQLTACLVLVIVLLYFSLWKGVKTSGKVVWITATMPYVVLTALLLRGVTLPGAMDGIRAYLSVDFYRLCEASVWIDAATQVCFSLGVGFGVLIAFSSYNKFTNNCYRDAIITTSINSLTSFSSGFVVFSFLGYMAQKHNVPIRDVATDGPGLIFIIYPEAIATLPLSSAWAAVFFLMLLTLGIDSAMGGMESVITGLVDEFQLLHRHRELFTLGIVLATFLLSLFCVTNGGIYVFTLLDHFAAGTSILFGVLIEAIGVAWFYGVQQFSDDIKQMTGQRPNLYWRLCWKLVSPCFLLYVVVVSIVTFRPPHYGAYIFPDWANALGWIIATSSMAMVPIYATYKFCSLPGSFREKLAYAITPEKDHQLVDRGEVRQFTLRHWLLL

[2] = Partition coefficient between 1-octanol (n-octanol) and buffer; assay type: physicochemical; conditions: for Partition coefficient (P.C.), 1-octanol/pH 7.0 buffer: 1-octanol/pH 7.0 phosphate buffer
Method: (§1) Partition coefficients were measured by mixing each Tc-99m compound with 3 g each of 1-octanol and buffer (pH 7.0 or 7.4, 0.1 M phosphate) in a test tube. The test tube was vortexed for 3 minutes at room temperature, then centrifuged for 5 minutes. Two weighed samples (0.5 g each) from the 1-octanol and buffer layers were counted in a well counter. The partition coefficient was determined by calculating the ratio of cpm/g of octanol to that of buffer. Samples from the octanol layer were repartitioned until consistent partition coefficient values were obtained. The measurement was repeated 3 times.
as §1, with “The partition coefficient was measured” for “Partition coefficients were measured”, “mixing the” for “mixing each”, “3 min” for “3 minutes”

[3] = assay type: in vivo, Male Sprague-Dawley rats
Method: Male Sprague-Dawley rats (225-300 g) allowed free access to food and water were used for in vivo biodistribution studies. Kung, 1984, supra; Kung, 1985, supra. While under ether anesthesia, 0.2 mL of a saline solution containing 1.19a, 1.19b, 1.20a, 1.20b or 1.21 (50-100 μCi) was injected directly into the femoral vein of rats, and the rats were sacrificed by cardiac excision at various time points post-injection. The organs of interest were removed and weighed, and the radioactivity was counted with an automatic gamma counter (Packard 5000). The percentage dose per organ was calculated by a comparison of the tissue counts to suitably diluted aliquots of the injected material. Total activities of blood and muscle were calculated under the assumption that they were 7% and 40% of the total body weight, respectively.
(§2) The major criteria for determining the potential usefulness of in vivo dopamine transporter imaging agents are based on an animal biodistribution study. In this case, rats were used as an animal model. After an intravenous injection of the Tc-99m labeled compounds, the values of initial brain uptake (% dose/whole organ) at 2 minutes post intravenous injection are used to measure the ability to penetrate the intact blood-brain barrier. Compounds displaying higher brain uptake are the better agents (minimum requirement >0.1% dose in brain). The second criteria is the specific uptake in the striatum region of the brain, where dopamine transporters are located. The uptake value (% dose/gram) of the striatum (ST) is divided by the background area, cerebellum (CB; essentially devoid of dopamine transporter); the ratio of ST/CB is an indicator for specific uptake (minimum requirement for ST/CB >1.5). Five structurally similar tropane derivatives were examined in this biological study. (Tables 1.1 to 1.4).
Male Sprague-Dawley rats (225-300 g) that were allowed free access to food and water were used for in vivo biodistribution studies. (Kung, 1984, supra; Kung, 1985, supra). While under halothane anesthesia, 0.2 mL of a saline solution containing 3.24 to 3.34 ([…]) was injected directly into the femoral vein of rats, and they were sacrificed by cardiac excision at various time points post-injection. The organs of interest were removed and weighed, and the radioactivity was counted with an automatic gamma counter (Packard 5000). The percentage dose per organ was calculated by a comparison of the tissue counts to suitably diluted aliquots of the injected material. Total activities of blood and muscle were calculated under the assumption that they were 7% and 40% of the total body weight, respectively.

dopamine transporters [4] = target: T2, dopamine transporters (Rattus norvegicus, UniProt P23977); assay type: in vivo, Male Sprague-Dawley rats; conditions: rats, iv
T2 sequence (P23977 whole entry): as above
Method: For dopamine transporter imaging agents, the target area of the brain is the striatum, where dopamine transporters are highly concentrated. The cerebellum region is suitable for use as the background region, because it has no dopamine transporters. The specific uptake is measured by the ratio of % dose/gram of striatum divided by % dose/gram of cerebellum (ST/CB ratio)--the higher the value, the better the specific uptake, and the more promising as a dopamine transporter imaging agent.
(§3) Regional brain distribution in rats was obtained after an injection of 1.19a, 1.19b, 1.20a, 1.20b or 1.21. Samples from different brain regions (cortex, striatum, hippocampus, and cerebellum) were dissected, weighed and counted, and the percentage dose per gram of sample was calculated by comparing the sample counts with the count of the diluted initial dose. The uptake ratio of each region was obtained by dividing the percentage dose per gram of that region by that of the cerebellum. For blocking studies, rats were injected with either β-CIT or haloperidol (iv, 1 mg/Kg) 5 min prior to injection of 1.19a. The rats were dissected and brain tissue samples were counted as described above. The specific uptake of the compound was expressed as ratio of ST/CB (% dose/g of striatum divided by the same of cerebellum).
as §2
as §3, with “3.24 to 3.34.” for “1.19a, 1.19b, 1.20a, 1.20b or 1.21.”, “3.25.” for “1.19a.”, “above.” for “above. The specific uptake of the compound was expressed as ratio of ST/CB (% dose/g of striatum divided by the same of cerebellum).”

dopamine transporters [5] = target: T2, dopamine transporters; experiment: In vitro autoradiography of rat brain sections; assay type: binding, Male Sprague-Dawley rats; conditions: rat brain coronal sections
Method: Male Sprague-Dawley rats ([…]) were sacrificed by decapitation, and the brains were removed, placed in OTC embedding medium (Miles Laboratory, Elkhart, Ind.) frozen in powdered dry ice. After equilibration to -15° C., 20 μm coronal sections were sliced on a cryostat (Hacker Instruments, Fairfield, N.J.), thaw mounted onto gelatin-coated slides, desiccated at 4° C. for 3 hours and kept at -70° C. until use. Prior to the experiment, the slides were dried at room temperature and preincubated for 30 minutes in buffer containing 50 mM Tris-HCl (pH 7.4, 120 mM NaCl). The slides were then incubated for 2 hours in preincubation buffer and the [^99m Tc] compound 3.25 (385,000 cpm/200 μL) in a coplan jar, washed for 1 hour in cold Tris buffer, with one change of buffer, dipped in ice-cold water to remove buffer salts and allowed to dry at room temperature. Nonspecific binding was determined in the presence of 1 μM IPT. These slides were simultaneously exposed to DuPont x-ray film in an autoradiographic cassette for 18 hours. The exposed film was developed with a Kodak automatic film processor.

dopamine transporters [6] = conditions: cited from earlier work

Compound | Ki [1] | Partition coefficient (P.C.), 1-octanol/pH 7.0 buffer [2] | Brain uptake, 2 min ([3]; rats, iv, 2 min) | Brain uptake, 60 min ([3]; rats, iv) | ST/CB ratio, 60 min (dopamine transporters [4]) | also measured
2b-{oxo[N,N'-bis-(2'-mercaptoethyl)-ethylenediaminato)]rhenium (V)-methylamino}-3b-(4-chlorophenyl)tropane [Compound 1.22] | 14 nM | – | – | – | – | –
CN1[C@H]2CC[C@@H]1[C@@H](CN(CCS)CCNCCS)[C@@H](c1ccc(Cl)cc1)C2 [Compound 1.16a] | 7 nM | – | – | – | – | –
CN1[C@H]2CC[C@@H]1[C@@H](C(=O)[N+]13CC[S][99Tc-]14(=[O])[S]CC[N]4CC3)[C@@H](c1ccc(Cl)cc1)C2 (stereo partly shown) [Compound 1.19b] | – | 230 | 0.39 ± 0.12 % dose/organ | 0.11 ± 0.02 % dose/organ | 2.78 and 2.78 ± 0.32 | Brain uptake, 30 min ([3]; rats, iv): 0.21 ± 0.03 % dose/organ; ST/CB ratio, 30 min (dopamine transporters [4]): 2.78
CN1[C@H]2CC[C@@H]1[C@@H](C[N+]13CC[S][99Tc-]14(=[O])[S]CC[N]4CC3)[C@@H](c1ccc(F)cc1)C2 (stereo partly shown) [Compound 1.20a] | – | 99-1818 and 99 | 0.37 ± 0.09 % dose/organ | 0.098 ± 0.014 % dose/organ | 2.18 and 2.18 ± 0.32 | –
CN1[C@H]2CC[C@@H]1[C@@H](C(=O)[N+]13CC[S][99Tc-]14(=[O])[S]CC[N]4CC3)[C@@H](c1ccc(F)cc1)C2 (stereo partly shown) [Compound 1.20b] | – | 99-1818 and 104 | 0.31 ± 0.09 % dose/organ | 0.07 ± 0.010 % dose/organ | 1.92 and 1.92 ± 0.28 | –
CN1[C@H]2CC[C@@H]1[C@@H](C[N+]13CC[S][99Tc-]14(=[O])[S]CC[N]4C(=O)C3)[C@@H](c1ccc(Cl)cc1)C2 (stereo partly shown) [Compound 1.21] | – | 1818 | 0.11 ± 0.02 % dose/organ | – | 1.17 ± 0.010 | Partition coefficient / lipophilicity, comparison in words [2]: almost tenfold higher partition coefficient; Brain uptake, 60 min, footnote c ([3]; data from rats sacrificed at 30 minutes): 0.07 ± 0.014 % dose/organ; Brain uptake lower than 1.19a and 1.19b ([3]; rats, iv, 2 min): at least 300%; Brain uptake, 30 min ([3]; rats, iv): 0.070 ± 0.014 % dose/organ; Brain uptake and specific striatal uptake, in words (dopamine transporters [4]): lowest brain uptake; ST/CB ratio, 30 min (dopamine transporters [4]): 1.17; ST/CB ratio, 60 min (dopamine transporters [4]; listed as 21): 1.17
COC(=O)[C@H]1[C@@H](c2ccc(Cl)cc2)C[C@@H]2CC[C@H]1N2CC[S][Re-]12(=[O])[S]CC[N+]1(C)CC[S]2 (stereo partly shown) [Compound 3.23] | 0.3 nM | – | – | – | – | –
COC(=O)[C@H]1[C@@H](c2ccc(Cl)cc2)C[C@@H]2CC[C@H]1N2CC=CI [IPT, N-(3-iodopropen-2-yl)-2β-carbomethoxy-3β-(4-chlorophenyl)tropane, reference compound] | – | – | – | – | – | Kd ([1]; data not shown, read-out: Kd of the radioligand [^125 I]IPT): 0.2 nM; Autoradiographic regional labeling (dopamine transporters [5]): almost identical regional labeling pattern; Time for reaching optimal uptake ratio / equilibrium (dopamine transporters [6]; basal ganglia versus frontal cortex): less than one hour; Literature binding / localization / biodistribution, in words (dopamine transporters [6]; in vivo): much higher binding affinity and selectivity to dopamine reuptake sites
